Measurements published in ChEMBL document CHEMBL5625206, “Design, synthesis, and evaluation of novel pleuromutilin aryl acrylate derivatives as promising broad-spectrum antibiotics especially for combatting multi-drug resistant gram-negative bacteria” (Eur J Med Chem, 2023).
≈ marks a conversion by molar mass, not a printed value. Calls of active or inactive are those of the source. The rule behind the calls is not given here.

Experiments:
Staphylococcus aureus [1] = test: Antibacterial activity against Staphylococcus aureus ATCC 25923 assessed as bacterial growth inhibition incubated for 24 hrs by CLSI based broth microdilution method; type: functional
Staphylococcus aureus [2] = test: Antibacterial activity against methicillin-resistant Staphylococcus aureus 575 clinical isolate assessed as bacterial growth inhibition incubated for 24 hrs by CLSI based broth microdilution method; type: functional
Escherichia coli [3] = test: Bactericidal activity against Escherichia coli ATCC 25922 assessed as reduction in colony count at 2 times MIC incubated for 24 hrs by time kill assay relative to control; type: functional
[4] = Cytotoxicity against human A549 cells incubated for 24 hrs by CCK8 assay; type: toxicity, cell-based
Staphylococcus aureus [5] = test: Inhibition of biofilm formation of methicillin-resistant Staphylococcus aureus ATCC 33591 incubated for 24 hrs by crystal violet staining based analysis; type: functional, organism-based
Staphylococcus aureus [6] = test: Induction of cell damage in methicillin-resistant Staphylococcus aureus ATCC 33591 assessed as fold increase in extracellular ATP concentration at 2 times MIC incubated for 30 mins by fluorescence based analysis relative to control; type: functional; settings: 0.5 h
Escherichia coli [7] = test: Induction of cell damage in Escherichia coli ATCC 25922 assessed as intracellular pH at MIC incubated for 30 mins by fluorescence based analysis (reference value: 6.05 +/- 0.10); type: functional; settings: 0.5 h
Escherichia coli [8] = test: Induction of cell damage in Escherichia coli ATCC 25922 assessed as intracellular pH at 2 times MIC incubated for 30 mins by fluorescence based analysis (reference value: 6.05 +/- 0.10); type: functional; settings: 0.5 h
Escherichia coli [9] = test: Disruption of cell membrane integrity in Escherichia coli ATCC 25922 assessed as wrinkled cell surface at MIC incubated for 4 hrs by FESEM analysis; type: functional, organism-based
Staphylococcus aureus [10] = test: Disruption of cell membrane integrity in methicillin-resistant Staphylococcus aureus ATCC 33591 at 4 times MIC incubated for 4 hrs by FESEM analysis; type: functional, organism-based
Staphylococcus aureus [11] = test: Antibacterial activity against methicillin-resistant Staphylococcus aureus ATCC 33591 infected in neutropenic Kunming mouse model assessed as reduction in infection-induced inflammatory cell inflammation in kidney at 10 mg/kg, ip measured after 7 days; type: functional, organism-based; settings: time 7.0 day
Staphylococcus aureus [12] = test: Antibacterial activity against methicillin-resistant Staphylococcus aureus ATCC 33591 infected in neutropenic Kunming mouse model assessed as reduction in infection-induced kidney damage at 20 mg/kg, ip measured after 7 days; type: functional, organism-based; settings: time 7.0 day
[13] = Toxicity in Sprague-Dawley rat assessed as animal death at 10 to 100 mg/kg, IG measured for 14 days; type: organism-based; settings: in vivo, po, 336 h, dose 10-100 mg/kg, time 14 day
[14] = Toxicity in fasted Sprague-Dawley rat assessed as mortality rate at 100 mg/kg, IG measured for 14 days; type: organism-based; settings: in vivo, po, time 14 day
[15] = Toxicity in fasted Sprague-Dawley rat assessed as mortality rate at 224 mg/kg, IG measured for 14 days; type: organism-based; settings: in vivo, po, time 14 day
[16] = Toxicity in fasted Sprague-Dawley rat assessed as mortality rate at 500 mg/kg, IG measured for 14 days; type: organism-based; settings: in vivo, po, time 14 day
[17] = Toxicity in fasted female Sprague-Dawley rat assessed as body weight at 100 mg/kg, IG measured on same day (reference value: 165.2 +/- 8.1 g); type: organism-based; settings: in vivo, po
[18] = Toxicity in fasted female Sprague-Dawley rat assessed as body weight at 148 mg/kg, IG measured on same day (reference value: 165.2 +/- 8.1 g); type: organism-based; settings: in vivo, po
[19] = Toxicity in fasted female Sprague-Dawley rat assessed as body weight at 224 mg/kg, IG measured on same day (reference value: 165.2 +/- 8.1 g); type: organism-based; settings: in vivo, po
[20] = Toxicity in fasted male Sprague-Dawley rat assessed as body weight at 100 mg/kg, IG measured after 7 days (reference value: 260.5 +/- 12.7 g); type: organism-based; settings: in vivo, po, 168 h, time 7 day
[21] = Toxicity in fasted female Sprague-Dawley rat assessed as body weight at 331 mg/kg, IG measured after 14 days (reference value: 214.3 +/- 9.8 g); type: organism-based; settings: in vivo, po, 336 h, time 14 day
[22] = Toxicity in fasted female Sprague-Dawley rat assessed as body weight at 500 mg/kg, IG measured after 14 days (reference value: 214.3 +/- 9.8 g); type: organism-based; settings: in vivo, po, 336 h, time 14 day
[23] = Toxicity in fasted male Sprague-Dawley rat assessed as animal growth rate at 224 mg/kg, IG measured for 14 days (reference value: 46.53 +/- 3.19 g); type: organism-based; settings: in vivo, po, 336 h, time 14 day
[24] = Toxicity in fasted male Sprague-Dawley rat assessed as animal growth rate at 500 mg/kg, IG measured for 14 days (reference value: 46.53 +/- 3.19 g); type: organism-based; settings: in vivo, po, 336 h, time 14 day
[25] = Toxicity in fasted male Sprague-Dawley rat assessed as relative liver weight ratio at 148 mg/kg, IG measured for 14 days (reference value: 3.616 +/- 0.286); type: organism-based; settings: in vivo, po, 336 h, time 14 day
[26] = Toxicity in fasted female Sprague-Dawley rat assessed as relative liver weight ratio at 224 mg/kg, IG measured for 14 days (reference value: 3.199 +/- 0.062); type: organism-based; settings: in vivo, po, 336 h, time 14 day
[27] = Toxicity in fasted female Sprague-Dawley rat assessed as relative liver weight ratio at 500 mg/kg, IG measured for 14 days (reference value: 3.199 +/- 0.062); type: organism-based; settings: in vivo, po, 336 h, time 14 day
[28] = Toxicity in fasted male Sprague-Dawley rat assessed as relative kidney weight ratio at 148 mg/kg, IG measured for 14 days (reference value: 0.820 +/- 0.072); type: organism-based; settings: in vivo, po, 336 h, time 14 day
[29] = Toxicity in fasted male Sprague-Dawley rat assessed as relative kidney weight ratio at 331 mg/kg, IG measured for 14 days (reference value: 0.820 +/- 0.072); type: organism-based; settings: in vivo, po, 336 h, time 14 day
[30] = Toxicity in fasted male Sprague-Dawley rat assessed as relative heart weight ratio at 148 mg/kg, IG measured for 14 days (reference value: 0.396 +/- 0.043); type: organism-based; settings: in vivo, po, 336 h, time 14 day
[31] = Toxicity in fasted male Sprague-Dawley rat assessed as relative heart weight ratio at 224 mg/kg, IG measured for 14 days (reference value: 0.396 +/- 0.043); type: organism-based; settings: in vivo, po, 336 h, time 14 day
[32] = Toxicity in fasted female Sprague-Dawley rat assessed as relative heart weight ratio at 331 mg/kg, IG measured for 14 days (reference value: 0.429 +/- 0.016); type: organism-based; settings: in vivo, po, 336 h, time 14 day
[33] = Toxicity in fasted female Sprague-Dawley rat assessed as relative heart weight ratio at 500 mg/kg, IG measured for 14 days (reference value: 0.429 +/- 0.016); type: organism-based; settings: in vivo, po, 336 h, time 14 day
[34] = Toxicity in fasted male Sprague-Dawley rat assessed as relative spleen weight ratio at 100 mg/kg, IG measured for 14 days (reference value: 0.246 +/- 0.037); type: organism-based; settings: in vivo, po, 336 h, time 14 day
[35] = Toxicity in fasted female Sprague-Dawley rat assessed as relative spleen weight ratio at 500 mg/kg, IG measured for 14 days (reference value: 0.223 +/- 0.019); type: organism-based; settings: in vivo, po, 336 h, time 14 day
[36] = Toxicity in fasted male Sprague-Dawley rat assessed as relative testis weight ratio at 148 mg/kg, IG measured for 14 days (reference value: 0.993 +/- 0.052); type: organism-based; settings: in vivo, po, 336 h, time 14 day
Staphylococcus aureus [37] = test: Induction of extracellular electrical conductivity in methicillin-resistant Staphylococcus aureus ATCC 33591 at 2 times MIC incubated for 8 hrs relative to control

C=C[C@]1(C)C[C@@H](OC(=O)COC(=O)/C=C/c2ccc(N(C)C)cc2)[C@]2(C)[C@H](C)CC[C@]3(CCC(=O)[C@H]32)[C@@H](C)[C@@H]1O
MIC (Staphylococcus aureus [1]): 1 µg/mL (≈ 1.81 µM) | MIC (Staphylococcus aureus [2]): 8 µg/mL (≈ 14.5 µM) | Activity (Escherichia coli [3]): 6.14 log10CFU/ml | CC50 at 24 h [4]: > 200 µM | inhibition (Staphylococcus aureus [5]): Dose-Dependent Effect | fold change (FC) (Staphylococcus aureus [6]): 3.21 | pH (Escherichia coli [7]): 4.34 | pH (Escherichia coli [8]): 3.23 | Activity (Escherichia coli [9]): Active | Activity (Staphylococcus aureus [10]): Active | Activity (Staphylococcus aureus [11]): inactive | Activity (Staphylococcus aureus [12]): Active | Activity [13]: Non-Toxic | mortality at 336 h [14]: 0% | mortality at 336 h [15]: 0% | mortality at 336 h [16]: 10% | Activity [17]: 163.6 g | Activity [18]: 159.8 g | Activity [19]: 168.5 g | Activity [20]: 265.5 g | Activity [21]: 218.7 g | Activity [22]: 207.7 g | Activity [23]: 45.2% | Activity [24]: 43.65% | Ratio [25]: 3.59 | Ratio [26]: 3.197 | Ratio [27]: 3.203 | Ratio [28]: 0.799 | Ratio [29]: 0.831 | Ratio [30]: 0.379 | Ratio [31]: 0.38 | Ratio [32]: 0.471 | Ratio [33]: 0.449 | Ratio [34]: 0.254 | Ratio [35]: 0.23 | Ratio [36]: 0.99 | Activity (Staphylococcus aureus [37]): 25.63%
